# Test results reported in article PMC8769072, “Proteome‐scale mapping of binding sites in the unstructured regions of the human proteome” (Molecular Systems Biology, 2022).
# Test system: immobilized GST-tagged bait protein domains
# Assay: ProP-PD phage selections (HD2 P8, sublibraries, HD2 P3, HD1 P8) with NGS and confidence level
# Assay type: binding, human
# [1] = bait MAP1LC3B_ATG8 (Q9GZQ8 2-119), HD2 library, benchmark motif instance recovered in the ProP-PD selection (TRUE/FALSE)
# [2] = HD2 library, bait SUMO1_SUMO__P63165_1_101, known motif instance of the benchmarking set found (TRUE) or not found (FALSE) among selected peptides
# [3] = library HD2, bait Keap1_KELCH__Q14145_321_609, whether the validated benchmark motif instance was recovered in the ProP-PD selection (TRUE/FALSE)
# [4] = bait CRK_SH3_1_P46108_124_198, library HD2, benchmarking set of validated motif instances, TRUE = motif instance recovered in the ProP-PD selection
# [5] = HD2 library, bait TNKS_TANK-peptide-bind__O95271_174_649, known motif instance of the benchmarking set found (TRUE) or not found (FALSE) among selected peptides
# [6] = bait OXSR1___O95747_434_527, HD2 library, confidence level (1-4) of best matching selected peptide
# [7] = bait OXSR1___O95747_434_527, HD2 library, specificity score of best matching selected peptide
# [8] = bait OXSR1___O95747_434_527, HD2 library, whether the validated benchmark motif instance was recovered in the ProP-PD selection (TRUE/FALSE)
# [9] = bait ANKRA2_Ank__Q9H9E1_142_313, library HD
# [10] = bait ANKRA2_Ank__Q9H9E1_142_313, library HD, mean normalised NGS counts
# [11] = bait ANKRA2_Ank__Q9H9E1_142_313, library HD, mean raw NGS counts, all selections
# [12] = library HD2, bait EPS15_EH__P42566_121_215, best matching peptide
# [13] = library HD2, bait EPS15_EH__P42566_121_215, confidence level of best matching peptide (4 High, 2-3 Medium, 1 Low)
# [14] = library HD2, bait EPS15_EH__P42566_121_215, whether the validated benchmark motif instance was recovered in the ProP-PD selection (TRUE/FALSE)
# [15] = library HD2, bait YAP1_WW_1_P46937_169_207, validated benchmark motif instance, in_library_check TRUE, TRUE/FALSE = instance recovered in ProP-PD selection
substance,measurement,setting,value
SRWEVIANYMNIHSSS,HD2-1mM_CaCl confidence,"bait CALM1 EF-hand (P0DP23, 2-149), HD2 library selection with 1mM_CaCl, confidence level (4 = High, 2 or 3 = Medium, 1 = Low)",3
same,HD2 confidence,"bait CALM1 EF-hand (P0DP23, 2-149), HD2 library selection, confidence level (4 = High, 2 or 3 = Medium, 1 = Low)",3
SSDGTCVAARTRPVLSCKKRR,motif_found,"library HD2, bait WDR5_WD_1234567_P61964_21_334, validated benchmark motif instance, in_library_check TRUE, TRUE/FALSE = instance recovered in ProP-PD selection",FALSE
SSGSSEDSFVEIRMAEGEA,motif_found,"bait MAP1LC3A_ATG8 (Q9H492 2-121), HD2 library, benchmark motif instance recovered in the ProP-PD selection (TRUE/FALSE)",FALSE
same,motif_found,[1],FALSE
SSHRKTKKPLPPTPEEDQILK,motif_found,"library HD2, bait YES1_SH3__P07947_90_152, validated benchmark motif instance, in_library_check TRUE, TRUE/FALSE = instance recovered in ProP-PD selection",FALSE
SSKPNQKKLIVLSDSEVIQLSDG,motif_found,[2],FALSE
SSLEEPHSPETGEKVVAGEV,motif_found,[3],FALSE
SSNPPTSVPTAPALSSVIAP,motif_found,"HD2 library, bait TSG101_UEV__Q99816_1_145, known motif instance of the benchmarking set found (TRUE) or not found (FALSE) among selected peptides",FALSE
SSSSASGSYGHLSASAISPALS,motif_found,"bait SUFU_SUFU__Q9UMX1_1_484, HD2 library, whether the validated benchmark motif instance was recovered in the ProP-PD selection (TRUE/FALSE)",FALSE
STAQEQDDVLIVDSDEEDSSNNADV,motif_found,[2],FALSE
STASKGRYIPPHLRNREATKG,motif_found,"library HD2, bait EIF4E_eIF4E__P06730_1_217, whether the validated benchmark motif instance was recovered in the ProP-PD selection (TRUE/FALSE)",FALSE
SVEFLDLAHSSESQETISS,motif_found,"library HD2, bait USP7_MATH-TRAF__Q93009_53_206, validated benchmark motif instance, in_library_check TRUE, TRUE/FALSE = instance recovered in ProP-PD selection",FALSE
SVVSPPELPPRNIPLT,HD confidence,"bait CRK_SH3_1_P46108_124_198, library HD",2
same,HD2 confidence,"bait CRK_SH3_1_P46108_124_198, library HD2 P8",4
same,HD2_cytoplasm confidence,"bait CRK_SH3_1_P46108_124_198, library HD2 P8 cytoplasm",4
same,HD2_nc confidence,"bait CRK_SH3_1_P46108_124_198, library HD2 P8 nucleocytoplasmic",2
same,HD2_nc count proportions,"bait CRK_SH3_1_P46108_124_198, library HD2 P8 nucleocytoplasmic, mean normalised NGS counts",6.106e-06
same,HD2_nc mean counts,"bait CRK_SH3_1_P46108_124_198, library HD2 P8 nucleocytoplasmic, mean raw NGS counts, all selections",1.0
same,HD count proportions,"bait CRK_SH3_1_P46108_124_198, library HD, mean normalised NGS counts",0.0001782
same,HD mean counts,"bait CRK_SH3_1_P46108_124_198, library HD, mean raw NGS counts, all selections",3.0
SWVAFAHTGAWGTGLP,HD2 confidence,"bait AP2B1_adaptin__P63010_700_937, HD2 P8 selection, non primary paralogue peptide match, confidence level -4 to 4: 4 = High, 3 or 2 = Medium, 1 = Low, 0 = Filtered/Noise",4
"TDEVPVPPPVPPRRRPESAP,DEVPVPPPVPPRRRPESAPA [SOS1]",motif_found,[4],FALSE
TDYRPPDDAVFDIITDEELCQ,motif_found,[1],FALSE
TFNSYRKEWEELFVNNNYL [TBC1D5 58-62],motif_found,"HD2 library, bait MAP1LC3A_ATG8__Q9H492_2_121, benchmark motif instance, in_library_check FALSE, in_library_coverage 0",FALSE
same,motif_found,"HD2 library, bait MAP1LC3B_ATG8__Q9GZQ8_2_119, benchmark motif instance, in_library_check FALSE, in_library_coverage 0",FALSE
TGQPTKVGRFQVTTTA,HD2_cytoplasm confidence,"bait OXSR1___O95747_434_527, HD2 P8 cytoplasm sublibrary, confidence level (4 = High, 2-3 = Medium, 1 = Low)",4
THHNQASDIIVISSEDSEGSTDVDE,motif_found,[2],FALSE
TKSTVTGERQSGDGQESTEPVE,motif_found,[5],FALSE
TKVGRFQVTTTANKVG,best_confidence,[6],4
same,best_specificity,[7],1
same,motif_found,[8],TRUE
TLALPSLVPQNYTENK,HD confidence,[9],2
same,HD count proportions,[10],0.0001017
same,HD mean counts,[11],1.75
TLDDSDEDVILVESQDPPLPS,motif_found,[2],FALSE
TLVSPKLPSLEAPTSA,HD2 confidence,"bait ANKRA2_Ank__Q9H9E1_142_313, HD2 P8 selection, confidence level -4 to 4: 4 = High, 3 or 2 = Medium, 1 = Low, 0 = Filtered/Noise",3
"TNAYKLPLAVGPPSLNYIPPVLQLS,LAVGPPSLNYIPP [TEX14]",motif_found,"bait CEP55_EABR__Q53EZ4_160_217, library HD2, benchmarking set of validated motif instances, TRUE = motif instance recovered in the ProP-PD selection",TRUE
TNGAMNVEIGNPTYKMYEGGEP,motif_found,"HD2 library, bait TLN1_PTB__Q9Y490_309_401, known motif instance of the benchmarking set found (TRUE) or not found (FALSE) among selected peptides",FALSE
TNLYWPGTAEPLLVSS,confidence,"library HD, bait AP2B1_adaptin__P63010_700_937, ProP-PD peptides with disease-related mutations",2
TNPFLNETLQDVQPSP,best_specificity,[12],1
same,best_confidence,[13],4
same,motif_found,[14],TRUE
TNPFQPAPPATLTLNQ,best_specificity,[12],1
same,best_confidence,[13],4
same,motif_found,[14],TRUE
TPDSRRVARPPPIGAEVPDVTA,motif_found,[5],FALSE
TPGAALSWQAAIDAARQAKLMG [CACNA1C],motif_found,"bait CALM1_EF-hand__P0DP23_2_149, library HD2, benchmarking set of validated motif instances, TRUE = motif instance recovered in the ProP-PD selection",FALSE
TPPGAKASNPFLPGGGPAT,motif_found,[14],FALSE
TPPPPYTVAPGRPLTA,best_confidence,"library HD2, bait YAP1_WW_1_P46937_169_207, confidence level of best matching selected peptide (4 High, 2-3 Medium, 1 Low)",4
same,best_specificity,"library HD2, bait YAP1_WW_1_P46937_169_207, specificity score of best matching selected peptide",1
same,motif_found,[15],TRUE
TPSYSISSTLNPQAPEFILGCTASKIT,motif_found,"bait PABP-B_PABP__P11940_544_623, HD2 library, whether the validated benchmark motif instance was recovered in the ProP-PD selection (TRUE/FALSE)",FALSE
TPYTAYPPPAQAYGIP,HD2_nc confidence,"bait CEP55_EABR__Q53EZ4_160_217, HD2 P8 nucleocytoplasmic sublibrary, confidence level (4 = High, 2-3 = Medium, 1 = Low)",4
same,HD2_nc mean counts,"bait CEP55_EABR__Q53EZ4_160_217, HD2 P8 nucleocytoplasmic sublibrary, mean NGS counts over replicate selections",482.0
same,HD2_nc count proportions,"bait CEP55_EABR__Q53EZ4_160_217, HD2 P8 nucleocytoplasmic sublibrary, mean proportion of NGS counts",0.008703
TQRSKPQPAVPPRPSADLIL [NCF1],motif_found,[4],FALSE
TQVPGTPPPKYNTLRLER,motif_found,"bait NEDD4_WW_4_P46934_890_928, HD2 library, whether the validated benchmark motif instance was recovered in the ProP-PD selection (TRUE/FALSE)",FALSE
same,motif_found,[15],FALSE
TRKKTFKEVANAVKISASLMGT,motif_found,"library HD2, bait CALM1_EF-hand__P0DP23_2_149, motif instance NOT in library (in_library_check FALSE, in_library_coverage 0)",FALSE
TSNNRLLNKRRKKQAGSSSA,motif_found,"bait KPNA4_Arm (O00629 68-487), HD2 library, benchmark motif instance recovered in the ProP-PD selection (TRUE/FALSE)",FALSE
TTTANKVGRFSVSKTE,best_confidence,[6],2
same,best_specificity,[7],1
same,motif_found,[8],TRUE
TVNNCAQDRESPDGSYTEEQSQ,motif_found,[5],FALSE
VDLTHNDSVVIVDERRRPRRN,motif_found,[2],FALSE
VDPSTGELQSLQMPES,best_specificity,"library HD2, bait Keap1_KELCH__Q14145_321_609, best matching peptide",1
same,best_confidence,"library HD2, bait Keap1_KELCH__Q14145_321_609, confidence level of best matching peptide (4 High, 2-3 Medium, 1 Low)",3
same,motif_found,[3],TRUE
VEEEWVIVSDEEIEEA,HD2_endomembrane confidence,"bait MAP1LC3A_ATG8__Q9H492_2_121, HD2 P8 endomembrane sublibrary, confidence level (4 = High, 2-3 = Medium, 1 = Low)",4
VEVIDLTIESSSDEED,best_confidence,"bait SUMO1_SUMO__P63165_1_101, HD2 library, confidence level (1-4) of best matching selected peptide",4
same,best_specificity,"bait SUMO1_SUMO__P63165_1_101, HD2 library, specificity score of best matching selected peptide",1
same,motif_found,"bait SUMO1_SUMO__P63165_1_101, HD2 library, whether the validated benchmark motif instance was recovered in the ProP-PD selection (TRUE/FALSE)",TRUE
VFPRPVLPSLTVSRVI,HD2 confidence,"bait ANKRA2_Ank__Q9H9E1_142_313, library HD2 P8",4
same,HD2_nc confidence,"bait ANKRA2_Ank__Q9H9E1_142_313, library HD2 P8 nucleocytoplasmic",3
same,HD2_nc count proportions,"bait ANKRA2_Ank__Q9H9E1_142_313, library HD2 P8 nucleocytoplasmic, mean normalised NGS counts",0.003084
same,HD2_nc mean counts,"bait ANKRA2_Ank__Q9H9E1_142_313, library HD2 P8 nucleocytoplasmic, mean raw NGS counts, all selections",216.6
VGDTSRGQVIIISDSDDDDDERILSLEK,motif_found,[2],FALSE
VGRFQVTSSKEPAEPL,best_confidence,[6],4
same,best_specificity,[7],1
same,motif_found,[8],TRUE
VGSQADTNVIDLTGDDKDDL,motif_found,[2],FALSE
VIGSADCNVIEIDDTLDDSDED,motif_found,[2],FALSE
VLGDQRRPSLPALHFIKGAGKK,motif_found,"library HD2, bait ANKRA2_Ank__Q9H9E1_142_313, motif instance NOT in library (in_library_check FALSE, in_library_coverage 0)",FALSE
VMSLPKLQQVPGLHPQ,HD confidence,[9],3
same,HD count proportions,[10],0.003008
same,HD mean counts,[11],34.0
